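Test compounds were applied to cells in 96-well plates for 48 hours at 5 doses. Here, GI50 denotes the concentration required for 50% inhibition of growth. TGI: concentration producing complete growth inhibition.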
Columns and labels:
Experiment in all cases: NCI anticancer screen, dose series, 48 h
[1] = tested on: NCI-H226 lung
[2] = tested on: UO-31 renal
[3] = tested on: NCI-H522 lung
[4] = tested on: UACC-62 melanoma
[5] = tested on: EKVX NSCLC
[6] = tested on: MALME-3M melanoma
[7] = tested on: RXF 393 renal
[8] = tested on: SNB-19 CNS
[9] = tested on: U251 CNS
[10] = tested on: ACHN renal

SMILES: O=C1/C(=C\C(Cl)=C/c2ccc([N+](=O)[O-])cc2)SC(=S)N1CCc1ccc(O)cc1
- GI50 [1]: 1.35 µM
- TGI [1]: 3.48 µM
- GI50 [2]: 0.324 µM
- TGI [2]: 1.24 µM
- GI50 [3]: 0.502 µM
- TGI [3]: 2.67 µM
- GI50 [4]: 0.566 µM
- TGI [4]: 1.86 µM
- GI50 [5]: 0.94 µM
- TGI [5]: 2.21 µM
- GI50 [6]: 1.05 µM
- TGI [6]: 2.48 µM
- GI50 [7]: 0.472 µM
- TGI [7]: 1.11 µM
- GI50 [8]: 0.507 µM
- TGI [8]: 1.86 µM
- GI50 [9]: 0.261 µM
- TGI [9]: 0.85 µM
- GI50 [10]: 0.249 µM
- TGI [10]: 0.584 µM

SMILES: Cc1c2c(nn1C(=O)c1nn(-c3ccc(Cl)cc3)cc1O)-c1ccccc1CC2
- GI50 [1]: 0.0968 µM
- TGI [1]: > 25.7 µM
- GI50 [2]: 0.0603 µM
- TGI [2]: > 100 µM
- GI50 [3]: 0.0376 µM
- TGI [3]: 0.717 µM
- GI50 [4]: 0.0507 µM
- GI50 [5]: 0.0707 µM
- TGI [5]: > 100 µM
- GI50 [6]: 0.328 µM
- TGI [6]: > 74 µM
- GI50 [7]: 0.0441 µM
- TGI [7]: > 42.8 µM
- GI50 [8]: 0.0446 µM
- TGI [8]: > 100 µM
- GI50 [9]: 0.0292 µM
- TGI [9]: > 100 µM
- GI50 [10]: 0.0456 µM
- TGI [10]: > 100 µM

SMILES: Cc1cccc2c(N=Nc3ccc(S(N)(=O)=O)cc3)c(O)[nH]c12
- GI50 [1]: > 25 µM
- TGI [1]: > 25 µM
- GI50 [2]: > 25 µM
- TGI [2]: > 25 µM
- GI50 [3]: > 25 µM
- TGI [3]: > 25 µM
- GI50 [4]: > 25 µM
- TGI [4]: > 25 µM
- GI50 [5]: > 25 µM
- TGI [5]: > 25 µM
- GI50 [6]: > 25 µM
- TGI [6]: > 25 µM
- GI50 [7]: > 25 µM
- TGI [7]: > 25 µM
- GI50 [8]: > 25 µM
- TGI [8]: > 25 µM
- GI50 [9]: > 25 µM
- TGI [9]: > 25 µM
- GI50 [10]: > 25 µM
- TGI [10]: > 25 µM

SMILES: CC#CS(=O)(=O)c1ccccc1
- TGI [1]: 24.1 µM
- TGI [2]: 3.58 µM
- TGI [3]: 3.92 µM
- TGI [4]: 14.2 µM
- TGI [5]: 35.4 µM
- TGI [6]: 12.5 µM
- TGI [7]: 31.8 µM
- TGI [8]: 27.2 µM
- TGI [9]: 25.5 µM
- TGI [10]: 12.8 µM

SMILES: CCOC(=O)c1c(C)nc2ccc(Cl)cc2c1-c1ccccc1
- GI50 [1]: 19.2 µM
- TGI [1]: 39.7 µM
- GI50 [2]: 14.8 µM
- TGI [2]: 31.1 µM
- GI50 [3]: 14.2 µM
- TGI [3]: 36.6 µM
- GI50 [4]: 10.7 µM
- TGI [4]: 26.6 µM
- GI50 [5]: 25.6 µM
- TGI [5]: 88.2 µM
- GI50 [6]: 17.6 µM
- TGI [6]: 42.3 µM
- GI50 [7]: 17.3 µM
- TGI [7]: 47.4 µM
- GI50 [8]: 14.4 µM
- TGI [8]: 34.9 µM
- GI50 [9]: 19.1 µM
- TGI [9]: 40.6 µM
- GI50 [10]: 17.1 µM
- TGI [10]: 35 µM

SMILES: CCCc1cc2cc(-n3nc(C)c4c3CC(C)(C)CC4=O)cc(NC3CCC(O)CC3)c2c(=O)[nH]1 (centres undefined)
- GI50 [1]: 5.36 µM
- TGI [1]: > 100 µM
- GI50 [2]: 0.146 µM
- TGI [2]: > 100 µM
- GI50 [3]: 0.257 µM
- TGI [3]: > 100 µM
- GI50 [4]: 0.189 µM
- TGI [4]: 5.39 µM
- GI50 [5]: 1.53 µM
- TGI [5]: > 100 µM
- GI50 [6]: 0.142 µM
- TGI [6]: 3.34 µM
- GI50 [7]: 0.113 µM
- TGI [7]: 2.92 µM
- GI50 [8]: 0.523 µM
- TGI [8]: > 100 µM
- GI50 [9]: 0.607 µM
- TGI [9]: > 100 µM
- GI50 [10]: 0.0712 µM
- TGI [10]: > 100 µM

Reference: PubChem BioAssay (NCI)
